Legend:
FGFR4 [1] = target: T1, FGFR4 (Homo sapiens (Human), UniProt P22455); experiment: Kinase assay Method 1, mobility shift assay; type: biochemical; settings: ATP at Km, numeric values, read-out: IC50(nM) value of compounds FGFR4
FGFR2 = FGFR2 (Homo sapiens (Human), UniProt P21802); experiment: Kinase assay Method 2, isotope-labeled 33P-ATP method; type: biochemical; settings: ATP at Km, filter-binding, read-out: IC50(nM) value of compounds, FGFR2
Protocol: (§1) Reagent: basic kinase buffer: 20 mM Hepes (pH 7.5), 10 mM MgCl2, 1 mM EGTA, 0.02% Brij35, 0.02 mg/mL BSA, 0.1 mM Na3VO4, 2 mM DTT, 1% DMSO
(§2) Adding the corresponding coenzyme factor to each kinase reaction
(§3) Reaction process: 1) formulating the substrate in freshly configured reaction buffer • 2) adding the required coenzyme factor to the above substrate solution • 3) adding kinase to the substrate solution and mixing gently • 4) adding the compounds dissolved in 100% DMSO to the above kinase reaction mixture, mixed well and incubating for 20 min at room temperature • 5) adding ^33P-ATP (specific activity 10 μCi/μL) to the reaction mixture to initiate the reaction and incubating for 2 h at room temperature • 6) detection of kinase activity by filter-binding The experiment data is shown in table 6: […]

FGFR3 = FGFR3 (Homo sapiens (Human), UniProt P22607); experiment: as above; type: biochemical; settings: ATP at Km, filter-binding, read-out: IC50(nM) value of compounds, FGFR3
Protocol: as §1, §2, §3

FGFR4 [2] = target: T1, FGFR4; experiment: as above; type: biochemical; settings: ATP at Km, filter-binding, read-out: IC50(nM) value of compounds, FGFR4
Protocol: as §1, §2, §3

NCI-H1581 cells = experiment: Cell proliferation assay on NCI-H1581 (Table 7); type: cell-based, human; settings: Homo sapiens, NCI-H1581, read-out: IC50(nM) value of compounds on NCI-H1581 cells
Description: Test method: adding the appropriate volume of whole medium and the cells was suspended.

[3] = test system: RT-112 (human bladder cancer cell); experiment: Cell proliferation assay, CellTiter Glo (Table 9); type: cell-based; settings: Homo sapiens, RT-112, 96 hrs
Protocol: (§4) Test method: 100 μl of the cell suspension was added to a 96-well plate and placed in a CO2 incubator overnight. Test compounds were dissolved in DMSO and subjected to a 3-fold gradient dilution for a total of 10 concentrations. The test compound or DMSO was transferred to the corresponding cell wells respectively and was incubated for 96 hrs in 5% CO2 at 37° C. 100 μl of CellTiter-Glo reagent was added to the assay plate and incubated for 10 min at room temperature to stabilize the luminescence signal. The IC50 value was calculated by recording the RLU (relative luminescence unit) using Enspire.

[4] = test system: OPM-2 (human myeloma cell); experiment: Cell proliferation assay, CellTiter Glo (Table 9); type: cell-based; settings: Homo sapiens, OPM-2, 96 hrs
Protocol: as §4

[5] = test system: NCI-H716 (human colorectal cancer cell); experiment: Cell proliferation assay, CellTiter Glo (Table 9); type: cell-based; settings: Homo sapiens, NCI-H716, 96 hrs
Protocol: as §4

[6] = test system: MFE-296 (human endometrial cancer cells); experiment: Cell proliferation assay, CellTiter Glo (Table 9); type: cell-based; settings: Homo sapiens, MFE-296, 96 hrs, WIFE-296 [sic]
Protocol: as §4

[7] = test system: JHH-7 (human hepatoma cell); experiment: Cell proliferation assay, CellTiter Glo (Table 9); type: cell-based; settings: Homo sapiens, JHH7, 96 hrs
Protocol: as §4

[8] = test system: DMS 114 (human lung cancer cell); experiment: Cell proliferation assay, CellTiter Glo (Table 9); type: cell-based; settings: Homo sapiens, DMS-114, 96 hrs
Protocol: as §4

[9] = test system: SNU-16 (human gastric cancer cell); experiment: Cell proliferation assay, CellTiter Glo (Table 9); type: cell-based; settings: Homo sapiens, SNU-16, 96 hrs
Protocol: as §4

[10] = test system: MDA-MB-453 (human breast cancer cell); experiment: Cell proliferation assay, CellTiter Glo (Table 9); type: cell-based; settings: Homo sapiens, MDA-MB-453, 96 hrs
Protocol: as §4

[11] = test system: NCI-H1581 (human non-small cell lung cancer cells); experiment: Cell proliferation assay, CellTiter Glo (Table 9); type: cell-based; settings: Homo sapiens, NCI-H1581, 96 hrs
Protocol: as §4

[12] = test system: RT4 (human bladder cancer cell); experiment: Cell proliferation assay, CellTiter Glo (Table 9); type: cell-based; settings: Homo sapiens, 96 hrs
Protocol: as §4

[13] = test system: cell lines with abnormal changes in FGFR signaling pathway; experiment: cells; settings: Homo sapiens, read-out: IC50 value
Protocol: Test method: 100 μl of the cell suspension was added to a 96-well plate and placed in a CO2 incubator overnight. […] The test compound or DMSO was transferred to the corresponding cell wells respectively and was incubated for 96 hrs in 5% CO2 at 37° C. 100 μl of CellTiter-Glo reagent was added to the assay plate and incubated for 10 min at room temperature to stabilize the luminescence signal. The IC50 value was calculated by recording the RLU (relative luminescence unit) using Enspire.

T1 sequence (P22455 22-802): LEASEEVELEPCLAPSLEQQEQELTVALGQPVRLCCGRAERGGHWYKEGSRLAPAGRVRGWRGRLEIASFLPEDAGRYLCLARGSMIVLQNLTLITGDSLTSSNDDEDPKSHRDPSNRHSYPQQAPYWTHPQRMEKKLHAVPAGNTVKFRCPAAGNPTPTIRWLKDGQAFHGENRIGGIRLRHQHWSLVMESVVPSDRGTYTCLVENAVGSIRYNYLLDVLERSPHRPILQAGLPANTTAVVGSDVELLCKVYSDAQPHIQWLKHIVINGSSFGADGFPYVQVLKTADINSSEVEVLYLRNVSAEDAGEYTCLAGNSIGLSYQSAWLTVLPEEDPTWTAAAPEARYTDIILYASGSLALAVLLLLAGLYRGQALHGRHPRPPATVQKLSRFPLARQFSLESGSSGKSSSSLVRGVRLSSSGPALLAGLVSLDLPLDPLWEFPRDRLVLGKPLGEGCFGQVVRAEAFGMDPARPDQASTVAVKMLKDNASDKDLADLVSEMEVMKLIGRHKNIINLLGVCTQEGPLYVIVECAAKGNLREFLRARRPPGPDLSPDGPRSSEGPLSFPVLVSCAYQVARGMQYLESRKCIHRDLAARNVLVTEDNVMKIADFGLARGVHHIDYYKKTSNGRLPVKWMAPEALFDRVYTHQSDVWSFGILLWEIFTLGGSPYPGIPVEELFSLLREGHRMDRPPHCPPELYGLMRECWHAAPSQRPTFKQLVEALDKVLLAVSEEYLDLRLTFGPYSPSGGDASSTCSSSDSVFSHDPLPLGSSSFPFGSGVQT
Sequence of FGFR3 (P22607 23-806): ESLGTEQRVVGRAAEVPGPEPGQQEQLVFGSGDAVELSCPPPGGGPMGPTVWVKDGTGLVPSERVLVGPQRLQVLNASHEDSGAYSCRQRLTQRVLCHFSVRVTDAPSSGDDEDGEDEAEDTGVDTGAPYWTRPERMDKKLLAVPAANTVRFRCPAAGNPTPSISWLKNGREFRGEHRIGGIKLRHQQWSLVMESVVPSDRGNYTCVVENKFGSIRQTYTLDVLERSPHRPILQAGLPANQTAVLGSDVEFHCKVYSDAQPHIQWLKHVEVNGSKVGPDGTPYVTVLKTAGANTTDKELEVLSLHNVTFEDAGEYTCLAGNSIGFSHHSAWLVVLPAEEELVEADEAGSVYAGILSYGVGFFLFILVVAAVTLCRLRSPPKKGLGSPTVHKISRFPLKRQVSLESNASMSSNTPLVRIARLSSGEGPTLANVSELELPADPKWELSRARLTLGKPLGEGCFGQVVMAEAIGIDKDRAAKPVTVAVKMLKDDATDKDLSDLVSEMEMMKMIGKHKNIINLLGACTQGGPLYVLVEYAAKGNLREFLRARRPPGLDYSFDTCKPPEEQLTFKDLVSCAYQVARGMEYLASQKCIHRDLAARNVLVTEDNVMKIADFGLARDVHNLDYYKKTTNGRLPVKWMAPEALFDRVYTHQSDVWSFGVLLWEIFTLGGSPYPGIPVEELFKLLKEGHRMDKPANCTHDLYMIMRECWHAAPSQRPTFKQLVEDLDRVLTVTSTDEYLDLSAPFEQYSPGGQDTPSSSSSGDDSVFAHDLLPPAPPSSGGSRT
Sequence of FGFR2 (P21802 22-821): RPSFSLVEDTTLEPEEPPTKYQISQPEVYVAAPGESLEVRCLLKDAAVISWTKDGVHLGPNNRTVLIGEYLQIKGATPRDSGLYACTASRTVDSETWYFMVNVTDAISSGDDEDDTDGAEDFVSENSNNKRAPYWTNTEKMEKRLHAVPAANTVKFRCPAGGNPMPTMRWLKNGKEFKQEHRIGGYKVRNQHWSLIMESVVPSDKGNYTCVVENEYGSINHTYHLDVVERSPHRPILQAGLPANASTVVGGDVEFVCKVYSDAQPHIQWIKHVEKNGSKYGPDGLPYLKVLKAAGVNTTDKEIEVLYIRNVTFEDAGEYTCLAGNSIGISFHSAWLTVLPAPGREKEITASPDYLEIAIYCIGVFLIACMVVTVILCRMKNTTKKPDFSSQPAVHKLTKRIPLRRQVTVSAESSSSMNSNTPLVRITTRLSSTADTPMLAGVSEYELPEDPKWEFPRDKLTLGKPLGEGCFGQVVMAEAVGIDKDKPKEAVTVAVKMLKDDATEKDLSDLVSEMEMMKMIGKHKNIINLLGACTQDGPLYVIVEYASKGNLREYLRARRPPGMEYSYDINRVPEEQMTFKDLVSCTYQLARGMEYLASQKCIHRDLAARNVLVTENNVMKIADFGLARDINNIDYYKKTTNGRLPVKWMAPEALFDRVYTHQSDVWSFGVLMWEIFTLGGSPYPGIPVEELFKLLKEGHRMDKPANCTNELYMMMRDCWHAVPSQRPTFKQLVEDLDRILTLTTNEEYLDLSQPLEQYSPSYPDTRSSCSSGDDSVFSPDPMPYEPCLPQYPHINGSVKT

CCN1CCN(c2ccc(Nc3ncc4cc(-c5cc(OC)cc(OC)c5Cl)c5nncn5c4n3)cc2)CC1 [Compound 4, 6-(2-chloro-3,5-dimethoxyphenyl)-N-(4-(4-ethylpiperazin-1-yl)phenyl)-[1,2,4]triazolo[4′,3′:1,6]pyrido[2,3-d]pyrimidin-2-amine]
IC50 (FGFR4 [1]): 27 nM
IC50 (FGFR2): 0.16 nM
IC50 (FGFR3): 1.34 nM
IC50 (FGFR4 [2]): 5.06 nM
IC50 (NCI-H1581 cells): 0.4 nM
IC50 [3]: 1 nM
IC50 [4]: 4 nM
IC50 [5]: 0.5 nM
IC50 [6]: 2.7 nM
IC50 [7]: 6.6 nM
IC50 [8]: 7.4 nM
IC50 [9]: 1.1 nM
IC50 [10]: 61.3 nM
IC50 [11]: 1.2 nM
IC50 [12]: 1.9 nM
IC50 [13]: 0.5 to 2.7 nM
